pIC50, pKi: −log10 of the molar value. Where a name gives a salt, the structure may show the parent alone. Marks after values point to notes of the source that are not given here.
What was measured:
P2X = test: Radioligand binding; set-up: species or system rat; conditions: 100 μM
Protocol: (§1) Radioligand binding. Radioligand binding assays were performed at Eurofins CEREP (France). The results are expressed as a percent of control specific binding (measured specific binding*100/control specific binding) and as a percent inhibition of control specific binding (100-(measured specific binding*100)/control specific binding) obtained in the presence of the test compounds. The IC50 values (concentration causing a half-maximal inhibition of control specific binding) and Hill coefficients (nH) were determined by non-linear regression analysis of the competition curves generated with mean replicate values using Hill equation curve fitting (Y = D + [A-D]/[1 + (C/C50)^nH], where Y = specific binding, A = left asymptote of the curve, D = right asymptote of the curve, C = compound concentration, C50 = IC50, and nH = slope factor). This analysis was performed using software developed at Cerep (Hill software) and validated by comparison with data generated by the commercial software SigmaPlot® 4.0 for Windows® (© 1997 by SPSS Inc.). The inhibition constants (Ki) were calculated using the Cheng Prusoff equation (Ki = IC50/[1 + L/KD], where L = concentration of radioligand in the assay, and KD = affinity of the radioligand for the receptor). A scatchard plot is used to determine the Kd.

PCP = test: Radioligand binding; set-up: species or system rat; conditions: 100 μM
Protocol: as §1

Cl- channel (GABA-gated) = test: Radioligand binding; set-up: species or system rat; conditions: 100 μM
Protocol: as §1

KV channel = test: Radioligand binding; set-up: species or system rat; conditions: 100 μM
Protocol: as §1

P2Y = test: Radioligand binding; set-up: species or system rat; conditions: 100 μM
Protocol: as §1

BB (non-selective) = test: Radioligand binding; set-up: species or system rat; conditions: 100 μM
Protocol: as §1

GABA (non-selective) = test: Radioligand binding; set-up: species or system rat; conditions: 100 μM
Protocol: as §1

SKCa channel = test: Radioligand binding; set-up: species or system rat; conditions: 100 μM
Protocol: as §1

CYP2C9 = target: T1, CYP2C9 (Homo sapiens, UniProt P11712); test: Human cytochrome P450 inhibition (human liver microsomes); format: in vitro ADME
T1 construct: from tissue; host or cells: human liver microsomes
Protocol: (§2) The selective reactions utilized for each enzyme were as follows: CYP1A2—phenacetin deethylation, CYP2A6—coumarin 7-hydroxylation, CYP2B6—7-ethoxy-4-trifluoromethyl coumarin O-deethylation, CYP2C9—diclofenac 4-hydroxylation, CYP2C19—S-mephenytoin 4-hydroxylation, CYP2D6—bufuralol 1’-hydroxylation, CYP2E1—chlorzoxazone 6-hydroxylation, CYP3A4—testosterone 6β-hydroxylation. For inhibitory evaluation, human liver microsomes and the tested compound (added in methanol as a solvent) were incubated under aerobic conditions with cytochrome P450 isozyme-selective substrates and excess NADPH at 37 °C. Incubations were for time periods over which the reaction in the absence of the compound, were determined to be linear, and proportional to the protein concentration. The human liver microsomes used were selected from the bank of those commercially available to be especially rich in the amount of the cytochrome P450 isozyme under investigation. However, it is important to note that the microsomes contained all the other isozymes in addition, and if reaction/substrate was less than specific, the other isozymes may have contributed to a minor extent to the enzyme activity determined. Following incubation, the reaction was terminated, an internal standard added, the metabolic products extracted and separated by reverse phase HPLC. Each assay was performed in duplicate, and the mean value calculated. The HPLC elutions were monitored by UV absorbance for all CYP reactions except those for CYP2A6, CYP2B6 and CYP2D6 where fluorescence monitoring was employed. Quantification was by comparison with authentic metabolites.

CYP2E1 = target: T2, CYP2E1 (Homo sapiens, UniProt P05181); test: as above; format: in vitro ADME
T2 construct: The human liver microsomes used were selected from the bank of those commercially available; from tissue; host or cells: human liver microsomes
Protocol: as §2

CYP2D6 = target: T3, CYP2D6 (Homo sapiens, UniProt P10635); test: as above; format: in vitro ADME
T3 construct: from tissue; host or cells: human liver microsomes
Protocol: as §2

Acute toxicity (LD50) = conditions: in vivo; for LD50 at 24 h: iv; for LD50 at 72 h: po
Protocol: Acute toxicity. The tested compounds were dissolved in 0.9% saline and administered po and injected into the caudal vein (iv) of mouse or rats at the constant volume of 10 mL/kg and 1 mL/kg, respectively. Each dose was given to six animals.

hNav1.5 sodium channel = target: T4, hNav1.5 sodium channel (Homo sapiens, UniProt Q14524); test: Nav channel electrophysiology (IonWorks Quattro); format: cell-based
T4 construct: host or cells: CHO cells

STZ-treated mice = test: Streptozotocin-induced diabetic neuropathy, hot plate test; format: in vivo
Protocol: Induction of diabetes. To induce diabetes the mice were injected with a single ip streptozotocin (STZ, Sigma-Aldrich, Germany) dose (200 mg/kg) dissolved in 0.1 N citrate buffer. Blood glucose levels were measured 1 h before and repeatedly 1, 2 and 3 weeks after STZ injection using a blood glucose monitoring system (AccuChek Active, Roche, France). Blood samples (5 µL) for the measurement of glucose concentration were obtained from the mouse tail vein. The animals were defined as diabetic when their blood glucose concentration exceeded 300 mg/dL and only those mice were used as diabetic mice in further tests. The body weight of mice was monitored 1 h before and 21 days after STZ injection.
Assessment of heat hyperalgesia in STZ-treated mice—hot plate test. Thermal hyperalgesia was assessed using the hot plate apparatus (Bioseb, France). In this test, after the establishment of pre-drug latency to pain reaction for each animal, the mice were treated with the tested compound and 30 min later they were placed into a glass cylinder on a hot plate set at 55 °C and observed for a nocifensive response (hind paw licking or jumping). The cut-off time was established at 30 s.

guinea pigs = test: Infiltration anesthesia (intradermal wheal test); format: in vivo
Protocol: A painful reaction to a prick of the skin at the centre of the wheal three times and every 5 s with 5 min intervals during the first 30 min of observation was tested. The experiment was continued to achieve a return of a reaction to the prick. The control wheal was done by an intradermal injection of 0.1 mL of 0.9% NaCl [25]. Local anesthesia was determined by calculating the ratio of the number of positive responses (no flinch) to the number of negative responses (flinch).

T3 sequence (P10635 whole entry): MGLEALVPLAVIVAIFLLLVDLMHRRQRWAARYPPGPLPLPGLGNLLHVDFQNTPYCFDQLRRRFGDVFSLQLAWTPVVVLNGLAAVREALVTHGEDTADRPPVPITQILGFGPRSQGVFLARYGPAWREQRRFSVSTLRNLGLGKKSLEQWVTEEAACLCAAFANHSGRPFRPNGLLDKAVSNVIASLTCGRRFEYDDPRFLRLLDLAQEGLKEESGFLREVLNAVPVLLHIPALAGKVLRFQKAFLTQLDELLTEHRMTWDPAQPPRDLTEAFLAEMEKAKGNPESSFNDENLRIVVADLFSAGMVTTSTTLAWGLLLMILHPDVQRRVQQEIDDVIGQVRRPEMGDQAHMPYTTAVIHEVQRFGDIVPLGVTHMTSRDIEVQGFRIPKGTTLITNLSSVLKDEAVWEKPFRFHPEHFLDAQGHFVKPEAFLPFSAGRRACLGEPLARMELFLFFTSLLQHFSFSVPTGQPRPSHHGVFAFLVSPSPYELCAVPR
T4 sequence (Q14524 whole entry): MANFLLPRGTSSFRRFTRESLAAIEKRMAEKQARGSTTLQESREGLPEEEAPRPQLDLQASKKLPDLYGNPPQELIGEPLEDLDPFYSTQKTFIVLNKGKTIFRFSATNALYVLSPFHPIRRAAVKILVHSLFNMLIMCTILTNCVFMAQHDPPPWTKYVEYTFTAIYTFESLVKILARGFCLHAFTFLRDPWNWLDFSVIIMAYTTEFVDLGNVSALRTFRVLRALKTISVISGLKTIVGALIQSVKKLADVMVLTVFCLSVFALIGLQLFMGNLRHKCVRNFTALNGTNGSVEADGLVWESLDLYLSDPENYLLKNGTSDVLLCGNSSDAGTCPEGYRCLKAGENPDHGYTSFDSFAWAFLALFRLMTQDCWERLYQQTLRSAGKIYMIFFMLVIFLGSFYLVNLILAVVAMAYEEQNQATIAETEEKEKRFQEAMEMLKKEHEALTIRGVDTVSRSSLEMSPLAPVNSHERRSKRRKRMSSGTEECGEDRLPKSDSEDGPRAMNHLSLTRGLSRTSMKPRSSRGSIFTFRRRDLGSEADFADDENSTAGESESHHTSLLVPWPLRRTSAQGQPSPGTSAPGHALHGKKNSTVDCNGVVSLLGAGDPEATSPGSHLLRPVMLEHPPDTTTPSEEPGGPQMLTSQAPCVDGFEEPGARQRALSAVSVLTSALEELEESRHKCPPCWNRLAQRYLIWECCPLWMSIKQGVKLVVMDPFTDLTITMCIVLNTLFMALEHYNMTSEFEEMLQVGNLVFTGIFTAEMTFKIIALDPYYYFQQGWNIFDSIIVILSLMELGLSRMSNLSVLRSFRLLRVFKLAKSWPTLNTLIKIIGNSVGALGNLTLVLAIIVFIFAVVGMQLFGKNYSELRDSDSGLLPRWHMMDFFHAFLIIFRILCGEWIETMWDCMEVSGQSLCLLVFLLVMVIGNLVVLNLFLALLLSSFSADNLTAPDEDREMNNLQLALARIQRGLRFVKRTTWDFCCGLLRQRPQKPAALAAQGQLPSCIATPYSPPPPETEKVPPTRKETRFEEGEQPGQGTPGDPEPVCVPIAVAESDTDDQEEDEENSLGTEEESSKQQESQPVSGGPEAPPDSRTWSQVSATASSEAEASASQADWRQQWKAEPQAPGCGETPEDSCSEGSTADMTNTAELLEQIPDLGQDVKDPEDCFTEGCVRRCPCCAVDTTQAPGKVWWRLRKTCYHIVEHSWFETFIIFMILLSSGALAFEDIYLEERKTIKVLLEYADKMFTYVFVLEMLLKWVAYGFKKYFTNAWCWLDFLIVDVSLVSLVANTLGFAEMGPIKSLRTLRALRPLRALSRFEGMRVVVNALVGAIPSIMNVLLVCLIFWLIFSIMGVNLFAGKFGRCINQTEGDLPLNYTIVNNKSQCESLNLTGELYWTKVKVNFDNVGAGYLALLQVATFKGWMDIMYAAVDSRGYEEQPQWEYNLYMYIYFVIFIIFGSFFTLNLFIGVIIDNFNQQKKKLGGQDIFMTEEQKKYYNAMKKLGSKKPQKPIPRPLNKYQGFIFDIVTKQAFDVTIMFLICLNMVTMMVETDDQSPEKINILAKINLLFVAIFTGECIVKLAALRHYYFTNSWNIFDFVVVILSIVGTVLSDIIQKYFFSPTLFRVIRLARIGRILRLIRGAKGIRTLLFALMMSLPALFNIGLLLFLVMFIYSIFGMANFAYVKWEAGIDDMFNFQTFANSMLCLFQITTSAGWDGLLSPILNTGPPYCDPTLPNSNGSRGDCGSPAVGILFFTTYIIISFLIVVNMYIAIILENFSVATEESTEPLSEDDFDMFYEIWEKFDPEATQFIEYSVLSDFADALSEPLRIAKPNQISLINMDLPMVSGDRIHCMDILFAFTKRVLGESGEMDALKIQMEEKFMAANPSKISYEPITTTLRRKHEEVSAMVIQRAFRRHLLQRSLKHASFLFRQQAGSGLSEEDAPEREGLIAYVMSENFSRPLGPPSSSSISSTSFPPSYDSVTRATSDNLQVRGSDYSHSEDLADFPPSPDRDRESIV
T2 sequence (P05181 whole entry): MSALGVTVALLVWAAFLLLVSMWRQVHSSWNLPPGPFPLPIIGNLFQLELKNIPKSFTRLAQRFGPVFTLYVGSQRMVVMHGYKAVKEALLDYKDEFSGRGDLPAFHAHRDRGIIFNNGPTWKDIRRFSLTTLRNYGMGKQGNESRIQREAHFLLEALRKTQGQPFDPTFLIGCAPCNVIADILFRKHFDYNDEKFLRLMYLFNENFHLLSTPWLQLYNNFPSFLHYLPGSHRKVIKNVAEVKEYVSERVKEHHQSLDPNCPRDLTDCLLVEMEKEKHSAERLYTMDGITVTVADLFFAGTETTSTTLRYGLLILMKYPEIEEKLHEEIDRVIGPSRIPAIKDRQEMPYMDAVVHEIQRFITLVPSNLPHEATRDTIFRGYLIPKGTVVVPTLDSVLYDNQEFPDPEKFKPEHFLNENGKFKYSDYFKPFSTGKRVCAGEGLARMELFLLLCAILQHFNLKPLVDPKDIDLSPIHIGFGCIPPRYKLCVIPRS
T1 sequence (P11712 whole entry): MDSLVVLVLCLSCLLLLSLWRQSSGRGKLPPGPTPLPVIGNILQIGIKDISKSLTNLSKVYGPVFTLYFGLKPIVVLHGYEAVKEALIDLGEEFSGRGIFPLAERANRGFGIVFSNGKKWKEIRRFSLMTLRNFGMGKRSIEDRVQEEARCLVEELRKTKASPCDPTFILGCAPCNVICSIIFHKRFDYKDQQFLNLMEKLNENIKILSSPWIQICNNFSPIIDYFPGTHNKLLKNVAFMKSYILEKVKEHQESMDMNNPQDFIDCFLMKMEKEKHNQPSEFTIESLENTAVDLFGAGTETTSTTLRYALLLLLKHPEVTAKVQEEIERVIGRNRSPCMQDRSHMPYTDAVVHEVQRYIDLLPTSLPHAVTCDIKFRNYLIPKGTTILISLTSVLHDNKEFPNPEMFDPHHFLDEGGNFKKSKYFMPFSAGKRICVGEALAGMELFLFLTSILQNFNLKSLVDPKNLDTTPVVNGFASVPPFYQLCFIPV

CCC(CO)NCCOc1c(C)cccc1Cl (stereo not shown) [Compound 4, R,S-2-((2-(2-chloro-6-methylphenoxy)ethyl)amino)butan-1-ol]
% of control specific binding (P2X): 100.6%
% of control specific binding (PCP): 72.6%
% of control specific binding (Cl- channel (GABA-gated)): 99.6%
% of control specific binding (KV channel): 104.2%
% of control specific binding (P2Y): 102.2%
% of control specific binding (BB (non-selective)): 104.6%
% of control specific binding (GABA (non-selective)): 109.3%
% of control specific binding (SKCa channel): 90.5%
Inhibition type (CYP2C9): Slight inhibition
% inhibition of 500 µM concentration (CYP2C9; 500 µM, substrate at 400 µM): 19 (substrate at 400 µM) %
Inhibition type (CYP2E1): Slight inhibition
% inhibition of 500 µM concentration (CYP2E1; 500 µM, substrate at 500.0 µM): 17 (substrate at 500.0 µM) %
Inhibition type (CYP2D6): Mixed/competitive
pKi (CYP2D6): 5.85
% inhibition of 500 µM concentration (CYP2D6; 500 µM, substrate at 100.0 µM): 100 (substrate at 100.0 µM) %

CCC(CO)NCCOc1c(C)cccc1Cl (stereo not shown) [KM-408, R,S-2-((2-(2-chloro-6-methylphenoxy)ethyl)amino)butan-1-ol hydrochloride]
LD50 at 24 h (Acute toxicity (LD50); mouse, mice): 19.8 mg/kg
LD50 at 72 h (Acute toxicity (LD50); mouse, mice): 246 mg/kg
LD50 at 24 h (Acute toxicity (LD50); rat, rats): 22.6 mg/kg
LD50 at 72 h (Acute toxicity (LD50); rat, rats): 670 mg/kg
pIC50 (hNav1.5 sodium channel; 10 Hz): 5.31
pIC50 (hNav1.5 sodium channel; Inactivated state): > 5.00
pIC50 (hNav1.5 sodium channel; Tonic block): 4.32
effect in hot plate test (STZ-treated mice; 1 mg/kg, STZ-treated mice): not effective
latency to pain reaction (STZ-treated mice; 10 mg/kg, STZ-treated mice): 15.8 ± 2.2 s
prolongation of latency vs. diabetic control (STZ-treated mice; 10 mg/kg, STZ-treated mice): 63%
latency to pain reaction (STZ-treated mice; 30 mg/kg, STZ-treated mice): 21.6 ± 2.2 s
prolongation of latency vs. diabetic control (STZ-treated mice; 30 mg/kg, STZ-treated mice): 123%
STZ-induced pain (hot plate): active at (STZ-treated mice; mice, ip): 10 mg/kg
Inhibition of pain reaction (guinea pigs; 0.125%, 30 min): 33.3* %
Inhibition of pain reaction (guinea pigs; 0.125%, 60 min): 38.9* %
Inhibition of pain reaction (guinea pigs; 0.125%, 120 min): 33.3* %
Inhibition of pain reaction (guinea pigs; 0.5%, 30 min): 93.3*** %
Inhibition of pain reaction (guinea pigs; 0.5%, 60 min): 81.2*** %
Inhibition of pain reaction (guinea pigs; 0.5%, 120 min): 66.7*** %
Inhibition of pain reaction (guinea pigs; 0.5%, 240 min): 20.0%
Inhibition of pain reaction (guinea pigs; […], 30 min): 81.2*** %
Inhibition of pain reaction (guinea pigs; […], 60 min): 64.7** %
Inhibition of pain reaction (guinea pigs; […], 120 min): 70.6*** %
Inhibition of pain reaction (guinea pigs; […], 240 min): 33.3* %
infiltration anesthesia: active at (guinea pigs; guinea pigs): 0.125%

Source: PMC9889419 (Pharmacological Reports, 2022)
